Data reported in US11214803B2, “Modulators of YAP1 expression” (Ionis Pharmaceuticals, Inc., priority 2019, dated 2022).
Strand notation (5' to 3'): a small letter for the sugar, then the base; units joined by * are phosphorothioate-linked, units joined directly phosphodiester-linked; [ ] holds rarer units or linkages, { } end groups; capitals alone tell only the bases. k = constrained ethyl (cEt); [5mC] = 5-methylcytosine; d = 2'-deoxy (DNA)

How the values were obtained:
[1] = Tolerability in Balb/c mice, plasma chemistry markers (Example 11); type: in vivo; conditions: 50 mg/kg subcutaneously twice a week for four weeks
Procedure: (§1) Balb/c mice were treated with modified oligonucleotides selected from studies described above and evaluated for changes in the levels of various plasma chemistry markers.
(§2) Groups of male Balb/c mice at 4-6 weeks of age (obtained from Taconic) were injected subcutaneously twice a week for four weeks (for a total of 8 treatments) with 50 mg/kg of modified oligonucleotides. One group of male Balb/c mice was injected with PBS. Mice were euthanized on day 26 post start of treatment (24 hours following the final administration).

[2] = system: Yap1 mRNA; test: Dose-dependent inhibition of human Yap1 in A-431 cells (Example 6, 5,000 cells per well, RTS4814); type: cell-based; conditions: for Yap1 mRNA, % UTC: 48 hours; for % UTC 148 nM / % UTC 444 nM / % UTC 1333 nM / % UTC 4000 nM: approximately 48 hours
Procedure: Modified oligonucleotides described in the studies above were tested at various doses in A-431 cells. Cultured A-431 cells at a density of 5,000 cells per well were treated using free uptake with modified oligonucleotides diluted to concentrations described in the tables below. After approximately 48 hours, Yap1 mRNA levels were measured as previously described using the Human Yap1 primer-probe set RTS4814. Yap1 mRNA levels were normalized to total RNA content, as measured by RIBOGREEN®. Results are presented in the tables below as percent control of the amount of Yap1 mRNA relative to untreated control cells (% UTC). IC50s were calculated using a linear regression on a log/linear plot of the data in excel.

[3] = Tolerability in Balb/c mice, body and organ weights (Example 11); type: in vivo; conditions: 50 mg/kg subcutaneously twice a week for four weeks, end of study
Procedure: as §2
(§3) Body weights of Balb/c mice were measured at the end of the study, and the average body weight for each group is presented in the table below. Modified oligonucleotides that caused any changes in organ weights outside the expected range for modified oligonucleotides were excluded from further studies.

[4] = Tolerability in Balb/c mice, body and organ weights (Example 10); type: in vivo; conditions: 50 mg/kg subcutaneously twice a week for four weeks, end of study
Procedure: as §2, §3

[5] = Tolerability in Balb/c mice, plasma chemistry markers (Example 10); type: in vivo; conditions: male Balb/c mice, 50 mg/kg subcutaneously twice a week for four weeks, day 26
Procedure: as §1, §2

[6] = Table 55, 148 nM, free uptake, A-431 cells 5,000 cells per well, RTS4814
[7] = Table 55, 444 nM, free uptake, A-431 cells 5,000 cells per well, RTS4814
[8] = Table 55, 1333 nM, free uptake, A-431 cells 5,000 cells per well, RTS4814
[9] = Table 55, 4000 nM, free uptake, A-431 cells 5,000 cells per well, RTS4814
[10] = Table 55, A-431 cells 5,000 cells per well, free uptake, RTS4814
[11] = Table 54, A-431 cells, Yap1 mRNA, linear regression on a log/linear plot
[12] = Table 54, A-431 cells, free uptake, 148 nM, RTS4814
[13] = Table 54, A-431 cells, free uptake, 444 nM, RTS4814
[14] = Table 54, A-431 cells, free uptake, 1333 nM, RTS4814
[15] = Table 54, A-431 cells, free uptake, 4000 nM, RTS4814
[16] = Table 53, A-431 cells, Yap1 mRNA, linear regression on a log/linear plot
[17] = Table 53, A-431 cells, free uptake, 148 nM, RTS4814
[18] = Table 53, A-431 cells, free uptake, 444 nM, RTS4814
[19] = Table 53, A-431 cells, free uptake, 1333 nM, RTS4814
[20] = Table 53, A-431 cells, free uptake, 4000 nM, RTS4814

| Substance | ALT [1] | AST [1] | BUN [1] | TBIL [1] | Kidney weight [3] | Liver weight [3] | Spleen weight [3] | body weight [3] | Kidney weight [4] | Liver weight [4] | Spleen weight [4] | body weight [4] | ALT (U/L) [5] | AST (U/L) [5] | TBIL [5] | IC50 [2, 11] | % UTC 148 nM [2, 12] | % UTC 444 nM [2, 13] | % UTC 1333 nM [2, 14] | % UTC 4000 nM [2, 15] | further results |
| --- | --- | --- | --- | --- | --- | --- | --- | --- | --- | --- | --- | --- | --- | --- | --- | --- | --- | --- | --- | --- | --- |
| 716455 (antisense kG*kT*kT*dA*dT*dG*dT*dT*dT*dG*dG*dG*dT*kG*kT*kG) [compound 716455] | 1089 U/L | 1193 U/L | 22 mg/dL | 0.25 mg/dL | 0.32 g | 2.66 g | 0.14 g | 21 g |  |  |  |  |  |  |  |  |  |  |  |  | Yap1 mRNA, % UTC [2, 6]: 95 % UTC; Yap1 mRNA, % UTC [2, 7]: 70 % UTC; Yap1 mRNA, % UTC [2, 8]: 49 % UTC; Yap1 mRNA, % UTC [2, 9]: 25 % UTC; IC50 [2, 10]: 1200 nM |
| 715593 (kA*kT*kT*dT*d[5mC]*dT*dT*dT*dG*dG*d[5mC]*dA*dG*kA*kG*kA; antisense) [compound 715593] |  |  |  |  |  |  |  |  | 0.30 g | 1.12 g | 0.13 g | 19 g | 628 U/L | 610 U/L | 0.11 mg/dL |  |  |  |  |  |  |
| 715558 (k[5mC]*kA*kG*dG*dA*dA*dG*dT*dT*dA*dT*dT*d[5mC]*kA*kG*k[5mC]; antisense) [compound 715558] |  |  |  |  |  |  |  |  | 0.38 g | 1.33 g | 0.12 g | 22 g | 65 U/L | 91 U/L | 0.16 mg/dL | > 4000 nM | 94 % UTC | 112 % UTC | 80 % UTC | 66 % UTC |  |
| 715609 (kT*kG*kT*dG*dT*dA*dG*dG*d[5mC]*dT*dG*dA*d[5mC]*kT*kT*kA; antisense) [compound 715609] |  |  |  |  |  |  |  |  | 0.33 g | 2.64 g | 0.10 g | 21 g | 1120 U/L | 2941 U/L | 0.67 mg/dL |  |  |  |  |  |  |
| 716480 (antisense kG*k[5mC]*kA*dA*dG*dT*d[5mC]*dT*dT*dG*dT*dA*dA*kG*kT*kA) [compound 716480] | 2156 U/L | 844 U/L | 19 mg/dL | 0.14 mg/dL | 0.34 g | 2.58 g | 0.10 g | 21 g |  |  |  |  |  |  |  |  |  |  |  |  | Yap1 mRNA, % UTC [2, 6]: 80 % UTC; Yap1 mRNA, % UTC [2, 7]: 56 % UTC; Yap1 mRNA, % UTC [2, 8]: 38 % UTC; Yap1 mRNA, % UTC [2, 9]: 39 % UTC; IC50 [2, 10]: 1000 nM |
| 715473 (kT*k[5mC]*kT*dT*dT*dA*dT*d[5mC]*dT*dA*dG*d[5mC]*dT*kT*kG*kG; antisense) [compound 715473] | 3046 U/L | 2861 U/L | 20 mg/dL | 2.77 mg/dL | 0.31 g | 1.46 g | 0.09 g | 20 g |  |  |  |  |  |  |  |  |  |  |  |  | IC50 [2, 16]: 1300 nM; % UTC 148 nM [2, 17]: 89 % UTC; % UTC 444 nM [2, 18]: 67 % UTC; % UTC 1333 nM [2, 19]: 50 % UTC; % UTC 4000 nM [2, 20]: 30 % UTC |
| 715480 (kG*kG*kA*dA*dA*d[5mC]*d[5mC]*dA*dT*dT*dA*dT*dT*kA*k[5mC]*kT; antisense) [compound 715480] |  |  |  |  |  |  |  |  | 0.34 g | 1.64 g | 0.12 g | 22 g | 791 U/L | 439 U/L | 0.15 mg/dL |  |  |  |  |  | IC50 [2, 16]: > 4000 nM; % UTC 148 nM [2, 17]: 91 % UTC; % UTC 444 nM [2, 18]: 79 % UTC; % UTC 1333 nM [2, 19]: 67 % UTC; % UTC 4000 nM [2, 20]: 59 % UTC |
| 715582 (kG*kT*k[5mC]*dA*dA*dG*d[5mC]*d[5mC]*dT*dG*dT*d[5mC]*dT*kG*kG*kA; antisense) [compound 715582] |  |  |  |  |  |  |  |  | 0.38 g | 1.46 g | 0.16 g | 22 g | 2460 U/L | 2320 U/L | 2.09 mg/dL | > 4000 nM | 98 % UTC | 63 % UTC | 93 % UTC | 70 % UTC |  |
| 716481 (antisense kT*k[5mC]*kA*dG*d[5mC]*dA*dT*dA*dG*dA*dA*dG*dT*kA*kG*kG) [compound 716481] | 1935 U/L | 2248 U/L | 21 mg/dL | 0.46 mg/dL | 0.36 g | 1.99 g | 0.13 g | 22 g |  |  |  |  |  |  |  | 2000 nM | 89 % UTC | 90 % UTC | 58 % UTC | 32 % UTC |  |
| 715557 (kG*kG*kA*dA*dG*dT*dT*dA*dT*dT*d[5mC]*dA*dG*k[5mC]*kA*kG; antisense) [compound 715557] |  |  |  |  |  |  |  |  | 0.31 g | 1.96 g | 0.12 g | 21 g | 1755 U/L | 2377 U/L | 0.28 mg/dL |  |  |  |  |  |  |
| 715415 (k[5mC]*kG*kA*dA*d[5mC]*dA*dT*dG*d[5mC]*dT*dG*dT*dG*kG*kA*kG; antisense) [compound 715415] | 1075 U/L | 701 U/L | 17 mg/dL | 0.14 mg/dL | 0.40 g | 1.79 g | 0.17 g | 25 g |  |  |  |  |  |  |  |  |  |  |  |  | IC50 [2, 16]: 1800 nM; % UTC 148 nM [2, 17]: 84 % UTC; % UTC 444 nM [2, 18]: 59 % UTC; % UTC 1333 nM [2, 19]: 55 % UTC; % UTC 4000 nM [2, 20]: 42 % UTC |
| 716502 (antisense k[5mC]*kA*k[5mC]*dA*dG*dT*dG*dA*dT*dT*dG*d[5mC]*dA*kT*kT*kT) [compound 716502] | 2920 U/L | 1329 U/L | 17 mg/dL | 0.27 mg/dL | 0.42 g | 2.18 g | 0.10 g | 23 g |  |  |  |  |  |  |  | 800 nM | 73 % UTC | 57 % UTC | 45 % UTC | 30 % UTC |  |
| 716424 (antisense kG*k[5mC]*kA*dA*dT*dG*dG*dA*d[5mC]*dA*dA*dG*dG*kA*kA*kG) [compound 716424] | 2077 U/L | 1422 U/L | 20 mg/dL | 0.22 mg/dL | 0.36 g | 2.08 g | 0.15 g | 23 g |  |  |  |  |  |  |  | 2000 nM | 76 % UTC | 69 % UTC | 51 % UTC | 44 % UTC |  |
| 715484 (kT*kA*k[5mC]*dT*d[5mC]*dT*dT*dT*dG*dG*dA*dA*dA*k[5mC]*k[5mC]*kA; antisense) [compound 715484] |  |  |  |  |  |  |  |  | 0.37 g | 1.47 g | 0.13 g | 22 g | 116 U/L | 110 U/L | 0.15 mg/dL |  |  |  |  |  |  |
| 716513 (antisense kA*kA*kT*d[5mC]*dT*dT*dA*dA*dT*d[5mC]*dT*dG*dT*kG*kG*k[5mC]) [compound 716513] | 325 U/L | 229 U/L | 17 mg/dL | 0.14 mg/dL | 0.41 g | 1.59 g | 0.18 g | 25 g |  |  |  |  |  |  |  |  |  |  |  |  | Yap1 mRNA, % UTC [2, 6]: 82 % UTC; Yap1 mRNA, % UTC [2, 7]: 73 % UTC; Yap1 mRNA, % UTC [2, 8]: 39 % UTC; Yap1 mRNA, % UTC [2, 9]: 39 % UTC; IC50 [2, 10]: 1400 nM |
